In general, EC50 refers to the concentration that produces a half-maximal response. Lower therefore signals a more potent agent.

The target of the experiment is Heat shock protein HSP 90-beta (Homo sapiens, UniProt P08238). Briefly: Her-2 Degradation Assay. The method, then:
A fluorescence histogram was generated, and the mean fluorescence intensity (MFI) of each sample was determined using Cellquest software.

Heat shock protein HSP 90-beta, sequence (P08238 whole entry): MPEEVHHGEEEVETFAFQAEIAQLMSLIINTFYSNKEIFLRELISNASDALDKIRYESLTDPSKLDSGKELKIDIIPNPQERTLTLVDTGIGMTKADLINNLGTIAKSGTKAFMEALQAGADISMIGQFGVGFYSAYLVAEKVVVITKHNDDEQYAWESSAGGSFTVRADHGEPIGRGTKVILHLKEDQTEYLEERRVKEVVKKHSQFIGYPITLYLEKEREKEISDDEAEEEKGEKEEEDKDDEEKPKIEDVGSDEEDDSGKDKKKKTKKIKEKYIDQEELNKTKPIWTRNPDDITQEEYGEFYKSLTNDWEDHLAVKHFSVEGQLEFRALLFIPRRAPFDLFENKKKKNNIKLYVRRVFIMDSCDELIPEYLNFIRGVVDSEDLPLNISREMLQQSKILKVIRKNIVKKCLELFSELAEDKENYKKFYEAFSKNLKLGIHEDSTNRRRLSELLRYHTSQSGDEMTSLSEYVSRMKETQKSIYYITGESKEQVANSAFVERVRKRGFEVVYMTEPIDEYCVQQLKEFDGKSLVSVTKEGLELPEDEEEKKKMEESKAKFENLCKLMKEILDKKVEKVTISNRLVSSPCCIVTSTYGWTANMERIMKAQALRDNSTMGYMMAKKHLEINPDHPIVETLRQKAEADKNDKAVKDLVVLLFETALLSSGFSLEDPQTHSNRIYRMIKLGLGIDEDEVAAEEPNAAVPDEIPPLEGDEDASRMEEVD

Compound `CC(=O)OCCn1c(Sc2nc3cccc(Cl)c3s2)nc2c(N)ncnc21` [2-{6-amino-8-[(7-chloro-1,3-benzothiazol-2-yl)sulfanyl]-9H-purin-9-yl}ethyl acetate] showed an EC50 (pH 7.2, 37 °C) of 150 nM. Same read-out and setting: under `CCCCn1c(Sc2nc3cccc(Cl)c3s2)nc2c(N)ncnc21` stands 180 nM. Take `CC(=O)OCCCn1c(Sc2nc3cncc(Cl)c3s2)nc2c(N)ncnc21` [3-[6-amino-8-({7-chloropyrido[3,4-d][1,3]thiazol-2-yl}sulfanyl)-9H-purin-9-yl]propyl acetate]: the EC50 stood at 170 nM. Take `CCCCn1c(Sc2nc3cccc(Br)c3s2)nc2c(N)ncnc21` [8-[(7-bromo-1,3-benzothiazol-2-yl)sulfanyl]-9-butyl-9H-purin-6-amine]: a half-maximal response (pH 7.2, 37 °C) (EC50) required 330 nM.

The compound `CC(=O)OCCCn1c(Sc2nc3cccc(Cl)c3s2)nc2c(N)ncnc21` [3-{6-amino-8-[(7-chloro-1,3-benzothiazol-2-yl)sulfanyl]-9H-purin-9-yl}propyl acetate] registered an EC50 (pH 7.2, 37 °C) of 90 nM. `CCCCn1c(Sc2nc3cccc(C)c3s2)nc2c(N)ncnc21` [9-butyl-8-[(7-methyl-1,3-benzothiazol-2-yl)sulfanyl]-9H-purin-6-amine]: under “pH 7.2, 37 °C”, the midpoint of the response, the EC50, lay at 300 nM.

As to `CCCCn1c(Sc2nc3ccc(Cl)cc3s2)nc2c(N)ncnc21` [9-butyl-8-[(6-chloro-1,3-benzothiazol-2-yl)sulfanyl]-9H-purin-6-amine], the EC50 (pH 7.2, 37 °C) was determined as 7000 nM.

For the setting “pH 7.2, 37 °C”, `Nc1ncnc2c1nc(Sc1nc3cccc(Cl)c3s1)n2CCCO` [3-{6-amino-8-[(7-chloro-1,3-benzothiazol-2-yl)sulfanyl]-9H-purin-9-yl}propan-1-ol] displayed an EC50 of 150 nM. Take `CCCCn1c(Sc2nc3c(Cl)cccc3s2)nc2c(N)ncnc21` [9-butyl-8-[(4-chloro-1,3-benzothiazol-2-yl)sulfanyl]-9H-purin-6-amine]: the EC50 (pH 7.2, 37 °C) turned out to be 15000 nM. In turn, `CCCCn1c(Sc2nc3cncc(Cl)c3s2)nc2c(N)ncnc21` [9-butyl-8-({7-chloropyrido[3,4-d][1,3]thiazol-2-yl}sulfanyl)-9H-purin-6-amine] showed an EC50 of 280 nM. In the case of `Nc1ncnc2c1nc(Sc1nc3cccc(Cl)c3s1)n2CCCCO` [4-{6-amino-8-[(7-chloro-1,3-benzothiazol-2-yl)sulfanyl]-9H-purin-9-yl}butan-1-ol], for the setting “pH 7.2, 37 °C”, a half-maximal response (EC50) required 150 nM. Still for that read-out and setting: the figure for `CCCCn1c(Sc2nc3cccc(F)c3s2)nc2c(N)ncnc21` [9-butyl-8-[(7-fluoro-1,3-benzothiazol-2-yl)sulfanyl]-9H-purin-6-amine] is 200 nM; for `Nc1ncnc2c1nc(Sc1nc3cccc(Cl)c3s1)n2CCO` [2-{6-amino-8-[(7-chloro-1,3-benzothiazol-2-yl)sulfanyl]-9H-purin-9-yl}ethan-1-ol] it is 300 nM; for `N#CCCCCn1c(Sc2nc3cccc(Cl)c3s2)nc2c(N)ncnc21` [5-{6-amino-8-[(7-chloro-1,3-benzothiazol-2-yl)sulfanyl]-9H-purin-9-yl}pentanenitrile] it is 110 nM. Consider `CC(C)(C)CNCCn1c(Sc2nc3cccc(Cl)c3s2)nc2c(N)ncnc21`, for which the EC50 was 35 nM.

Under “pH 7.2, 37 °C”, `CCn1c(Sc2nc3cccc(Cl)c3s2)nc2c(N)ncnc21` [8-[(7-chloro-1,3-benzothiazol-2-yl)sulfanyl]-9-ethyl-9H-purin-6-amine] showed an EC50 of 200 nM.

Turning to `Nc1ncnc2c1nc(Sc1nc3cccc(Cl)c3s1)n2CCN1CCOCC1` [8-[(7-chloro-1,3-benzothiazol-2-yl)sulfanyl]-9-[2-(morpholin-4-yl)ethyl]-9H-purin-6-amine], the EC50 (pH 7.2, 37 °C) is 250 nM. Same read-out and setting: under `CCCCn1c(Sc2nc3cccc(OC)c3s2)nc2c(N)ncnc21` [9-butyl-8-[(7-methoxy-1,3-benzothiazol-2-yl)sulfanyl]-9H-purin-6-amine] stands 190 nM; under `CC(=O)OCCCCn1c(Sc2nc3cccc(Cl)c3s2)nc2c(N)ncnc21` [4-{6-amino-8-[(7-chloro-1,3-benzothiazol-2-yl)sulfanyl]-9H-purin-9-yl}butyl acetate], 130 nM. The compound `Nc1ncnc2c1nc(Sc1nc3cccc(Cl)c3s1)n2CCNC1CC1` [8-[(7-chloro-1,3-benzothiazol-2-yl)sulfanyl]-9-[2-(cyclopropylamino)ethyl]-9H-purin-6-amine] registered an EC50 of 110 nM. `CCCCn1c(Sc2nc3cccc(OCC)c3s2)nc2c(N)ncnc21` [9-butyl-8-[(7-ethoxy-1,3-benzothiazol-2-yl)sulfanyl]-9H-purin-6-amine] registered an EC50 (pH 7.2, 37 °C) of 100000 nM. On to `CC(C)(C)NCCCn1c(Sc2nc3cccc(Cl)c3s2)nc2c(N)ncnc21` [9-[3-(tert-butylamino)propyl]-8-[(7-chloro-1,3-benzothiazol-2-yl)sulfanyl]-9H-purin-6-amine], for which the EC50 stood at 150 nM. Compound `CCCCCn1c(Sc2nc3cccc(Cl)c3s2)nc2c(N)ncnc21` [8-[(7-chloro-1,3-benzothiazol-2-yl)sulfanyl]-9-pentyl-9H-purin-6-amine] registered an EC50 (pH 7.2, 37 °C) of 700 nM. Where the note is “pH 7.2, 37 °C”, `CCCCn1c(Sc2nc3ccc(Cl)c(Cl)c3s2)nc2c(N)ncnc21` [9-butyl-8-[(6,7-dichloro-1,3-benzothiazol-2-yl)sulfanyl]-9H-purin-6-amine] yielded an EC50 of 25000 nM. Same read-out and setting: under `CCCCn1c(Sc2nc3ccccc3s2)nc2c(N)ncnc21` [8-(1,3-benzothiazol-2-ylsulfanyl)-9-butyl-9H-purin-6-amine] stands 5000 nM. Consider `CC(C)(C)NCCn1c(Sc2nc3cccc(Cl)c3s2)nc2c(N)ncnc21` [9-[2-(tert-butylamino)ethyl]-8-[(7-chloro-1,3-benzothiazol-2-yl)sulfanyl]-9H-purin-6-amine], for which the midpoint of the response, the EC50, lay at 140 nM. As to `CC(C)NCCCn1c(Sc2nc3cccc(Cl)c3s2)nc2c(N)ncnc21` [8-[(7-chloro-1,3-benzothiazol-2-yl)sulfanyl]-9-[3-(propan-2-ylamino)propyl]-9H-purin-6-amine], the EC50 turned out to be 170 nM.

As to `CCCCn1c(Sc2nc3cncc(Br)c3s2)nc2c(N)ncnc21` [8-({7-bromopyrido[3,4-d][1,3]thiazol-2-yl}sulfanyl)-9-butyl-9H-purin-6-amine], a half-maximal effect (EC50) was put at 400 nM. `CCCn1c(Sc2nc3cccc(Cl)c3s2)nc2c(N)ncnc21` [8-[(7-chloro-1,3-benzothiazol-2-yl)sulfanyl]-9-propyl-9H-purin-6-amine]: the EC50 (pH 7.2, 37 °C) was found to be 250 nM.

The values above are taken from BindingDB's records for doi:10.1021/jm051146h (Conforma Therapeutics, 2006).
